From patent US20250346571A1, “BICYCLIC DERIVATIVE PARP INHIBITOR AND USE THEREOF” (XIZANG HAISCO PHARMACEUTICAL CO., LTD., priority 2022, published 2025) come the findings set out here.

Data set [1] can be described thus: Pharmacokinetic test in rats. Format: in vivo, SD rats. The procedure: 3.1 Experimental animal: male SD rats, about 220 g, 6-8 weeks old, 6 rats/compound, purchased from Chengdu Ddossy Experimental Animals Co., Ltd.
3.2 Experimental design: on the day of the experiment, 30 SD rats were randomly grouped according to their body weights. The animals were fasted with water available for 12 to 14 h one day before the administration and were fed 4 h after the administration.
(§1) Before and after the administration, 0.15 ml of blood was taken from the orbit of the animals under isoflurane anesthesia and placed in an EDTAK2 centrifuge tube. The blood was centrifuged at 5000 rpm and 4° C. for 10 min to collect plasma. The blood collection time points for the intravenous administration group and intragastric administration group were 0, 5 min, 15 min, 30 min, 1 h, 2 h, 4 h, 6 h, 8 h and 24 h. The brain tissues were collected 24 hours after administration, rinsed with cold physiological saline to remove the residual blood on the surface, drained out and then homogenized. Before analysis and detection, all samples were stored at −80° C. The samples were analyzed quantitatively by LC-MS/MS.

Data set [2] is described as follows: Pharmacokinetic test in monkeys. Format: in vivo, cynomolgus monkeys. The procedure:
6.1 Experimental animal: male cynomolgus monkeys, 3-5 kg, 3-6 years old, 4 monkeys/compound, purchased from Suzhou Xishan Biotechnology Inc.
6.2 Test method: On the day of the experiment, 8 monkeys were randomly grouped according to their body weights. The animals were fasted with water available for 14 to 18 h one day before the administration, and were fed 4 h after the administration.
Before and after the administration, 1.0 mL of blood was taken from the limb veins and placed in an EDTAK2 centrifuge tube. The blood was centrifuged at 5000 rpm and 4° C. for 10 min to collect plasma. The blood collection time points for the intravenous administration group were 0, 5 min, 15 min, 30 min, 1 h, 2 h, 4 h, 6 h, 8 h, 10 h, 12 h, 24 h and 48 h. Before analysis and detection, all samples were stored at −80° C. The samples were analyzed quantitatively by LC-MS/MS.

In data set [3] the test system is MDA-MB-436 cells. The experiment in a line: MDA-MB-436 cell activity test (CellTiter-Glo, 7 days). Format: cell-based. Particulars: Homo sapiens. How it is done:
Breast tumor cells MDA-MB-436 were purchased from ATCC, the culture medium was Leibovitz's L-15+10% FBS, and the cells were cultured in a CO2-free incubator at 37° C. On day 1, the cells in the exponential growth phase were collected, and the cell suspension was adjusted to 4000 cells/135 μL with the culture medium. 135 μL of the cell suspension was added to each well of a 96-well cell culture plate and incubated overnight. On day 2, compounds at different concentrations were added, and the plate was placed in the incubator and incubated for 7 days. After the incubation was completed, according to operation instructions for a CellTiter-Glo kit (Promega, G7573), 75 μL of CTG solution, which was already pre-melted and equilibrated to room temperature, was added to each well, and the mixture was uniformly mixed for 2 min using a microplate shaker. The plate was placed at room temperature for 10 min, and then […] were measured using an Envision2104 plate reader (PerkinElmer). The inhibition rate was calculated using formula (1), where RLUcompound was the readout of the drug treated group, RLUcontrol was the average value of the vehicle control group, and RLUblank was the average value of the cell-free well. The IC50 value was calculated using GraphPad Prism software
(Cellular ATP, detected with luciferase, serves as a proxy for viable cell number.)

Data set [4] in a line: Pharmacokinetic test in mice. Format: in vivo, Balb/c mice. The procedure: 4.1 Experimental animal: male Balb/c mice, 20-25 g, 12 mice/compound, purchased from Chengdu Ddossy Experimental Animals Co., Ltd.
4.2 Experimental design: on the day of the test, 60 Balb/c mice were randomly grouped according to their body weights. The animals were fasted with water available for 12 to 14 h one day before the administration and were fed 4 h after the administration.
as §1, with “administration, 0.06 mL ofblood” for “administration, 0.15 ml of blood”, “8 h,” for “8 h”, “collected at 30 min, 2 h and 24 h after administration of compounds 12, 15 and 18, respectively. The brain tissues were collected” for “collected”, “after administration of compounds 2 and 5,” for “after administration,”

Data set [5] deals with PARP-1 enzyme (Homo sapiens (Human), UniProt P09874). The experiment in a line: PARP-1 enzyme activity test (chemical fluorescence detection kit, BPS Bioscience). Format: biochemical. Particulars: grades; read-out: PARP-1 enzyme activity IC50. How it is done:
PARP-1 chemical fluorescence detection kit was purchased from BPS Bioscience. The histone solution in the kit was diluted 5× with 1×PBS, and 25 μL of the diluted histone solution was added to a microwell plate and incubated overnight at 4° C. After the incubation, the plate was washed three times with PBST (0.05% Tween-20). 100 μL of the blocking solution was added to the microwell plate and incubated at 25° C. for 90 minutes. After the incubation was completed, the plate was washed three times with PBST. 2.5 μL of compounds at different concentrations diluted in test buffer and 12.5 μL of substrate mixed solution (1.25 μL 10×PARP test buffer; 1.25 μL 10×PARP test mixed solution; 2.5 μL Activated DNA, 7.5 μL double-distilled water) were added to the microwell plate. The PARP-1 enzyme was diluted to 2 ng/μL, […] was added to the microwell plate, and the reaction system was incubated at 25° C. for 60 minutes.
After the incubation was completed, the plate was washed three times with PBST. Streptavidin-HRP was diluted 50× with a blocking solution, and 25 μL of the diluent was added to the microwell plate and incubated at 25° C. for 30 minutes. After the incubation, the plate was washed three times with PBST. ELISA ECL substrate A and substrate B were uniformly mixed at a ratio of 1:1 (v/v), 50 μL of the mixture was added to the microwell plate, and the chemiluminescence value was read.
The inhibition rate was calculated according to formula 1, where RLUsample was the readout of the compound well, RLUmax was the readout of the solvent control well, and RLUmin was the readout of the control well without the PARP-1 enzyme. Curve fitting was performed by four parameters (log(inhibitor) vs. response—Variable slope) using GraphPad Prism software, and the ICso value was calculated.
Inhibition %=(1−(RLUsample−RLUmin)/(RLUmax−RLUmin))×100% (formula 1)

The mark [6] stands for this setting: male, SD, rat, iv, rats, i.v. 2.5 mg/kg, plasma.
The mark [7] stands for this setting: male, cynomolgus monkey, iv, monkeys, i.v. (0.5 mg/kg), plasma.
Where [8] appears, read: male, Balb/c, mouse, iv, mice, i.v. 2.5 mg/kg, plasma.

Structures are written as SMILES.

Sequence of PARP-1 enzyme (P09874 whole entry): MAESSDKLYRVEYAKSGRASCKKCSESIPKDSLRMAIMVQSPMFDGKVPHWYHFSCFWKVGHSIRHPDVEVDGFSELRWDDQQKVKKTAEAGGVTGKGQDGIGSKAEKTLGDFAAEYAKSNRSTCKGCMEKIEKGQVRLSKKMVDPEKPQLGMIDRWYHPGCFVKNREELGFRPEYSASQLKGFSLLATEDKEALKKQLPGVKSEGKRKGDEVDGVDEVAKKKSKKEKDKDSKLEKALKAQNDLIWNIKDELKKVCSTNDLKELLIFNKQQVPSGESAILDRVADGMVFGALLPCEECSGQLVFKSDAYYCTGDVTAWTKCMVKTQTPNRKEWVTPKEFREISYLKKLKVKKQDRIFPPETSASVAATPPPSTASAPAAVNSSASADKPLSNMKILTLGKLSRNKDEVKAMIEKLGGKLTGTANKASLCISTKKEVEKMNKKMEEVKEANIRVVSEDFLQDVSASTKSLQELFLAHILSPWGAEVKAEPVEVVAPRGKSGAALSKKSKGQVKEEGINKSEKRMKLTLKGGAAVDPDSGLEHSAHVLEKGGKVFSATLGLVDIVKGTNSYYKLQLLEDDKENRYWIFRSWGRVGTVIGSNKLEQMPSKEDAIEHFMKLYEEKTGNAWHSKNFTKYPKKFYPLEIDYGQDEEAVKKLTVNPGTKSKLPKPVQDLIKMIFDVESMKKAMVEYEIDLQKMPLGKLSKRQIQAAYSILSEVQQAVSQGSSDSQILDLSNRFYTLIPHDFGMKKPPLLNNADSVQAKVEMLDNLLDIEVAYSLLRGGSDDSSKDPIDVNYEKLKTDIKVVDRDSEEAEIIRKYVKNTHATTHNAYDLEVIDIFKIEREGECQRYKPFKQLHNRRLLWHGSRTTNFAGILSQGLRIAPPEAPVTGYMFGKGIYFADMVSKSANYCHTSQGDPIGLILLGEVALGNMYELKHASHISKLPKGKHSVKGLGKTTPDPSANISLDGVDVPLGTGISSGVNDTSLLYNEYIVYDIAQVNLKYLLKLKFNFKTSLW

Broadly, the AUC(0-t) is the area under the concentration-time curve up to a stated or last time point. A low value points to low exposure. In general, clearance refers to a measure of how efficiently the substance is removed, as volume per time. For orientation: bioavailability means the share of a dose that reaches the circulation, judged against a reference dose that is usually intravenous. By IC50 is commonly meant the concentration that gives 50% inhibition. For the compound `O=C(NC1CC1)c1ccc(N2CCN(Cc3ccc4nc(C(F)F)c(=O)[nH]c4c3F)CC2)c(F)n1` [Compound 12, N-cyclopropyl-5-(4-((2-(difluoromethyl)-5-fluoro-3-oxo-3,4-dihydroquinoxalin-6-yl)methyl)piperazin-1-yl)-6-fluoropicolinamide], the “pharmacokinetic characteristics in rats” value in data set [1] (conclusion in words) was “good pharmacokinetic characteristics”. In addition, the Kp at 24 h in data set [1] (male, SD, rat, brain/plasma, intravenous, 2.5 mg/kg, rats, 24 h after administration, read-out: Brain/Plasma Ratio (24 h)) worked out at 1.5. For the same compound, the area under the curve AUC(0-t) in data set [1] (setting [6]) is 14500 ± 4760 ng·h/mL; in data set [1] (male, SD, rat, po, rats, i.g. 10 mg/kg, plasma), 63300 ± 19600 ng·h/mL; in data set [2] (setting [7]) it was 5470 ± 422 ng·h/mL; in data set [2] (male, cynomolgus monkey, po, monkeys, i.g. (3 mg/kg), plasma) it was 20700 ± 1990 ng·h/mL; in data set [4] (setting [8]), 19000 ± 3590 ng·h/mL; in data set [4] (male, Balb/c, mouse, po, mice, i.g. 10 mg/kg, plasma) it was 80800 ng·h/mL. Besides, the figures for the clearance in data set [1] (setting [6]), in data set [2] (setting [7]) and in data set [4] (setting [8]) were 3.13 ± 1.2 mL/min/kg, 1.5 ± 0.13 mL/min/kg and 2.16 ± 0.31 mL/min/kg, respectively. Moreover, the Vd in data set [1] (male, SD, rat, iv, rats, i.v. 2.5 mg/kg, plasma, read-out: Vdss) amounted to 0.631 ± 0.12 L/kg; in data set [2] (male, cynomolgus monkey, iv, monkeys, i.v. (0.5 mg/kg), plasma, read-out: Vdss), 0.419 ± 0.02 L/kg; in data set [4] (male, Balb/c, mouse, iv, mice, i.v. 2.5 mg/kg, plasma, read-out: Vdss), 0.42 ± 0.017 L/kg. The bioavailability was ≥ 98% in data set [1] (male, SD, rat, plasma, po, rats, i.g. 10 mg/kg); 63.2 ± 6.1% in data set [2] (male, cynomolgus monkey, plasma, po, monkeys, i.g. (3 mg/kg)); ≥ 98% in data set [4] (male, Balb/c, mouse, plasma, po, mice, i.g. 10 mg/kg). Besides, the “pharmacokinetic characteristics in monkeys” value in data set [2] (conclusion in words) is “good pharmacokinetic characteristics”. The IC50 in data set [3] (MDA-MB-436, 168 h, 7 days incubation) was 10.2 nM; in data set [5], < 5 nM. In addition, the inhibition at 10 µM in data set [3] (10 μM, MDA-MB-436 cells, read-out: Max inh. % 10 μM) was 74.5%. Besides, the “pharmacokinetic characteristics in mice” value in data set [4] (conclusion in words) is reported as “good pharmacokinetic characteristics”.
